Columns and labels:
Assay type in all cases: cell-based
[1] = tested on: human small intestine-derived organoid; test: Culture of organoids in presence of Matrigel and LATS kinase inhibitor; cell number by ATP (CellTiter-Glo 3D); details: presence of Matrigel; 10 mM Lats-IN as printed; 7 days of culture; vs control without Lats-IN
Experimental: A human small intestine-derived organoid and a human large intestine-derived organoid were cultured in the presence of an inhibitor of LATS1 kinase and LATS2 kinase, Lats-IN-1 (CAS No. 1424635-83-5, hereinafter sometimes referred to as “Lats-IN” and also referred to as “TRULI”), and their dynamics were observed.
The human small intestine-derived organoid and the human large intestine-derived organoid used were those established from tissues derived from patients with gastrointestinal tumors who provided informed consent, in accordance with an ethical research plan approved by the Ethics Committee of the Keio University School of Medicine.
Each organoid was dissociated into single cells using TrypLE Express (Thermo Fisher Scientific Inc.) to obtain a cell suspension. […]
The cell proliferation was measured by measuring adenosine triphosphate (ATP) using a commercially available kit (product name “CellTiter-Glo 3D,” Promega Corporation).
The upper left panel of FIG. 2 is a photograph of a control (Ctrl) human small intestine-derived organoid cultured in the absence of Lats-IN, and the upper center panel of FIG. 2 is a photograph of a human small intestine-derived organoid cultured in the presence of Lats-IN. […] The vertical axis of the graph represents luminescence intensity (relative value) indicating the amount of ATP present.

[2] = tested on: crypts collected from the human colon; test: Organoid establishment from human colon crypts dissociated into single cells; cell number by ATP; details: absence of Matrigel, presence of TRULI; compared with presence of Matrigel
Experimental: Crypts were collected from the human colon and dissociated into single cells, then cultured in the presence of Matrigel (registered trademark) or in the absence of Matrigel (registered trademark) and in the presence of TRULI to establish organoids. In addition, the cell number in each organoid under the given conditions was measured by measuring ATP using a commercially available kit (product name “CellTiter-Glo 3D,” Promega Corporation).
The upper panel of FIG. 30 is a schematic view explaining an overview of this experimental example. The lower panel of FIG. 30 is a graph showing the results of measuring the proliferation of the organoids.

[3] = tested on: human large intestine-derived organoids; test: Immunostaining for localization of YAP and Ki67; details: 10 μM Lats-IN; in both presence and absence of Matrigel; approximately 10% without Lats-IN
Experimental: Human small intestine-derived organoids and human large intestine-derived organoids were cultured in the absence and presence of Matrigel (registered trademark) and in the absence and presence of a LATS kinase inhibitor (final concentration: 10 μM) in the same manner as in Experimental Example 2. Subsequently, immunostaining was performed to confirm the localization of YAP. In addition, Ki67, a marker for cell proliferation, was detected to confirm proliferating cells.
The leftmost column of FIG. 6 presents photographs showing the results of immunostaining of the human large intestine-derived organoids cultured in the presence of Matrigel (registered trademark) and in the absence of Lats-IN (Ctrl). […]
FIG. 7 is a graph summarizing the results of FIGS. 5 and 6. As a result, in both the presence and absence of Matrigel (registered trademark), in the absence of Lats-IN, YAP was localized in the cytoplasm, and when the number of Ki67-positive cells, which indicates cell proliferation, was counted, the percentage of Ki67-positive cells was approximately 10% of the total cells. In contrast, in both the presence and absence of Matrigel (registered trademark), in the presence of Lats-IN, the number of cells in which YAP was localized in the nucleus was counted. […]

## O=C(N=c1sccn1Cc1ccccc1)c1c[nH]c2ncccc12 [Lats-IN]
[1]
  cell proliferation (cell number per well, ATP luminescence): significantly activated
[2]
  cell proliferation (ATP) during organoid establishment: comparable to that observed in the presence of Matrigel
[3]
  percentage of Ki67-positive cells: ≥ 50 % of the total cells

From US20250283049A1, “AGENT FOR CULTURING ORGANOID IN ABSENCE OF EXTRACELLULAR MATRIX” (KEIO UNIVERSITY, priority 2022, published 2025)
